Results from patent US20240058460A1, “METHODS AND COMPOUNDS FOR MODULATING HUNTINGTON'S DISEASE” (Design Therapeutics, Inc., priority 2022, published 2024).

How the values were obtained:
Assay type in all cases: cell-based
[1] = test system: human HTT C allele (SNP rs362331C/T) mRNA in GM04022 fibroblasts; assay: HTT mRNA, allele-specific RT-PCR in GM04022 fibroblasts, C allele; settings: for GM 04022Emin 48 hr C Allele: lowest % HTT observed at 0.5 nM to 1000 nM compound
Procedure: (§1) Molecular Biology Toolkit: • qPCR primer probe sets: • RNA input normalization was assessed utilizing human glyceraldehyde 3-phosphate dehydrogenase (hGAPDH) TaqMan assay (ThermoFisher cat #4351370) or Human Cyclophillin ([…]) TaqMan assay (ThermoFisher cat #4351372) • Total HTT detection was assessed utilizing human Htt TaqMan assay (ThermoFisher cat #4331182) • Allele-specific detection of human HTT expression in HD cells containing the SNP rs362331C/T (Exon 50): for each assay, allele-specific probes to detect the SNP variant contained locked nucleic acid bases to improve allele discrimination, as compared to unmodified DNA probes. • 362331-F (331 forward primer) • 362331-R (331 reverse primer) • 362331-C probe: TCC CTC ATC+C+AC TGT GT • 362331-T probe: CTC+A+T+C+T+A+C TGT GT • qPCR was performed using Agpath ID one-step reverse transcriptase polymerase chain reaction (RT-PCR) reagent
Screening of HD molecules methods: GM09197 and/or GM04022 fibroblasts were cultured in T175 flasks incubated at 37° C. and 5% CO2. Once confluency was reached, the media was removed, the cells were washed with 1×PBS, and cells were dissociated using TrypLE™ Express Enzyme. Media was added to the enzyme and collected into a 15-mL conical tube and centrifuged at 500×g for 5 minutes to pellet the cells. Media and enzyme were aspirated using a serological pipette. Cells were resuspended in fresh media and counted using a Countess 3 Automated Cell Counter. Cells were plated at a density of 15,000 cells/well in a tissue culture-treated polystyrene 96-well dish and incubated at 37° C. and 5% CO2 overnight. The next day, media was removed using an 8-channel aspirator. 200 μL media/well are added back into the plate. The molecules are formulated to 1 mM and are dispensed using a Multidrop™ Pico 8 Digital Dispenser. […] Human mtHTT, wtHTT, and GAPDH mRNA were measured via RT-PCR using the ThermoFisher QuantStudio™ 7 Flex System in 384-well format. […]

[2] = test system: human HTT C allele (SNP rs362331C/T) mRNA in GM09197 fibroblasts; assay: HTT mRNA, allele-specific RT-PCR in GM09197 fibroblasts, C allele; settings: for GM 09197 E min 48 Hr C Allele (%): lowest % HTT observed at 0.5 nM to 1000 nM compound; for IC50: Homo sapiens, Fibroblast, 48 hr, C allele HTT mRNA normalized to GAPDH, relative to vehicle
Procedure: as §1
(§2) Screening of HD molecules methods: GM09197 and/or GM04022 fibroblasts were cultured in T175 flasks incubated at 37° C. and 5% CO2. Once confluency was reached, the media was removed, the cells were washed with 1×PBS, and cells were dissociated using TrypLE™ Express Enzyme. Media was added to the enzyme and collected into a 15-mL conical tube and centrifuged at 500×g for 5 minutes to pellet the cells. Media and enzyme were aspirated using a serological pipette. Cells were resuspended in fresh media and counted using a Countess 3 Automated Cell Counter. Cells were plated at a density of 15,000 cells/well in a tissue culture-treated polystyrene 96-well dish and incubated at 37° C. and 5% CO2 overnight. The next day, media was removed using an 8-channel aspirator. 200 μL media/well are added back into the plate. The molecules are formulated to 1 mM and are dispensed using a Multidrop™ Pico 8 Digital Dispenser. After a 48-hour incubation with compounds, media was removed from plates, cells were washed with 1×PBS, and cells were lysed in 40 μL per well guanidinium thiocyanate buffer. RNA was isolated and purified in […] glass fiber column plates using chaotropic salts. Human mtHTT, wtHTT, and GAPDH mRNA were measured via RT-PCR using the ThermoFisher QuantStudio™ 7 Flex System in 384-well format. Results of HTT levels were normalized to GAPDH mRNA levels. Normalized HTT mRNA levels were expressed relative to vehicle-treated samples to assess fold change after molecule treatment.
(§3) Emin for each compound is the lowest % HTT concentration observed within a compound concentration of 0.5 nM to 1000 nM.

[3] = test system: human HTT T allele (SNP rs362331C/T) mRNA in GM04022 fibroblasts; assay: HTT mRNA, allele-specific RT-PCR in GM04022 fibroblasts, T allele; settings: for IC50: Homo sapiens, Fibroblast, 48 hr, T allele HTT mRNA normalized to GAPDH, relative to vehicle; for GM04022 Emin 48 hr T Allele: lowest % HTT observed at 0.5 nM to 1000 nM compound
Procedure: as §1, §2, §3

[4] = test system: human HTT T allele (SNP rs362331C/T) mRNA in GM09197 fibroblasts; assay: HTT mRNA, allele-specific RT-PCR in GM09197 fibroblasts, T allele; settings: for IC50: Homo sapiens, Fibroblast, 48 hr, T allele HTT mRNA normalized to GAPDH, relative to vehicle; for Gm09197 Emin 48 hr T Allele (%): lowest % HTT observed at 0.5 nM to 1000 nM compound
Procedure: as §1, §2, §3

Structure (SMILES) | GM 04022Emin 48 hr C Allele [1] | GM 09197 E min 48 Hr C Allele (%) [2] | IC50 [3] | GM04022 Emin 48 hr T Allele [3] | IC50 [4] | Gm09197 Emin 48 hr T Allele (%) [4] | IC50 [2] | IC50 ([1]; Homo sapiens, Fibroblast, 48 hr, C allele HTT mRNA normalized to GAPDH, relative to vehicle)
Cn1cc(NC(=O)c2nc(NC(=O)CCNC(=O)c3cc(NC(=O)c4nccn4C)cn3C)cn2C)cc1C(=O)NCCCC(=O)Nc1cn(C)c(C(=O)NCCC(=O)Nc2cc(C(=O)Nc3cn(C)c(C(=O)NCCC(=O)NCCOCCOCCOCCOCCOCCOCCOCCOCCOCCOCCOCCOCCOCCOCCOCCOc4ccc(NC(=O)c5cc6c(-c7cc(S(C)(=O)=O)ccc7Oc7ccc(F)cc7F)cn(C)c(=O)c6[nH]5)cc4)n3)n(C)c2)n1 [Compound A-2] | A (A>90%) | A (A>90%) | > 1000 nM | C (C<80%) | 32 nM | C (C<80%) | – | –
CC(=O)N1c2ccc(-c3ccn(-c4ccc(OCCOCCOCCOCCOCCOCCOCCOCCOCCOCCOCCOCCOCCOCCOCCOCCNC(=O)CCNC(=O)c5nc(NC(=O)c6cc(NC(=O)CCNC(=O)c7nc(NC(=O)CCCNC(=O)c8cc(NC(=O)c9nc(NC(=O)CCNC(=O)c%10cc(NC(=O)c%11nccn%11C)cn%10C)cn9C)cn8C)cn7C)cn6C)cn5C)cc4)n3)cc2[C@H](Nc2ccc(C#N)cc2)C[C@@H]1C [Compound A-58] | – | – | – | – | > 1000 nM | – | > 1000 nM | –
CC(=O)N1c2ccc(-c3ccn(-c4ccc(OCCOCCOCCOCCOCCOCCOCCOCCOCCNC(=O)CCNC(=O)c5nc(NC(=O)c6cc(NC(=O)CCNC(=O)c7nc(NC(=O)CCCNC(=O)c8cc(NC(=O)c9nc(NC(=O)CCNC(=O)c%10cc(NC(=O)c%11nccn%11C)cn%10C)cn9C)cn8C)cn7C)cn6C)cn5C)cc4)n3)cc2[C@H](Nc2ccc(C#N)cc2)C[C@@H]1C [Compound A-59] | – | – | – | – | > 1000 nM | – | > 1000 nM | –
CCNS(=O)(=O)c1ccc(Oc2ccc(OCCOCCOCCOCCOCCOCCOCCOCCOCCOCCOCCOCCOCCOCCOCCOCCNC(=O)CCNC(=O)c3nc(NC(=O)c4cc(NC(=O)CCNC(=O)c5nc(NC(=O)CCCNC(=O)c6cc(NC(=O)c7nc(NC(=O)CCNC(=O)c8cc(NC(=O)c9nccn9C)cn8C)cn7C)cn6C)cn5C)cn4C)cn3C)cc2F)c(-c2cn(C)c(=O)c3[nH]ccc23)c1 [Compound A-68] | – | A (A>90%) | – | – | 17 nM | C (C<80%) | – | –
CCS(=O)(=O)Nc1ccc(Oc2ccc(F)cc2F)c(-c2cn(C)c(=O)c3[nH]c(C(=O)Nc4ccc(OCCOCCOCCOCCOCCOCCOCCOCCOCCOCCOCCOCCOCCOCCOCCOCCNC(=O)CCNC(=O)c5nc(NC(=O)c6cc(NC(=O)CCNC(=O)c7nc(NC(=O)OCCNC(=O)c8cc(NC(=O)c9nc(NC(=O)CCNC(=O)c%10cc(NC(=O)c%11nccn%11C)cn%10C)cn9C)cn8C)cn7C)cn6C)cn5C)cc4)cc23)c1 [Compound A-72] | – | – | – | – | > 1000 nM | A (A>90%) | > 1000 nM | –
Cc1sc2c(c1C)C(c1ccc(Cl)cc1)=N[C@@H](CC(=O)Nc1ccc(OCCOCCOCCOCCOCCOCCOCCOCCOCCOCCOCCOCCOCCOCCOCCOCCNC(=O)CCNC(=O)c3nc(NC(=O)c4cc(NC(=O)CCNC(=O)c5nc(NC(=O)OCCNC(=O)c6cc(NC(=O)c7nc(NC(=O)CCNC(=O)c8cc(NC(=O)c9nccn9C)cn8C)cn7C)cn6C)cn5C)cn4C)cn3C)cc1)c1nnc(C)n1-2 [Compound A-73] | – | A (A>90%) | – | – | > 1000 nM | A (A>90%) | > 1000 nM | –
CCS(=O)(=O)Nc1ccc(Oc2ccc(F)cc2F)c(-c2cn(C)c(=O)c3[nH]c(C(=O)Nc4ccc(OCCOCCOCCOCCOCCOCCOCCOCCOCCOCCOCCOCCOCCOCCOCCOCCNC(=O)CCNC(=O)c5nc(NC(=O)c6cc(NC(=O)CCNC(=O)c7nc(NC(=O)NCCNC(=O)c8cc(NC(=O)c9nc(NC(=O)CCNC(=O)c%10cc(NC(=O)c%11nccn%11C)cn%10C)cn9C)cn8C)cn7C)cn6C)cn5C)cc4)cc23)c1 [Compound A-74] | – | – | – | – | > 1000 nM | A (A>90%) | > 1000 nM | –
Cc1sc2c(c1C)C(c1ccc(Cl)cc1)=N[C@@H](CC(=O)Nc1ccc(OCCOCCOCCOCCOCCOCCOCCOCCOCCOCCOCCOCCOCCOCCOCCOCCNC(=O)CCNC(=O)c3nc(NC(=O)c4cc(NC(=O)CCNC(=O)c5nc(NC(=O)NCCNC(=O)c6cc(NC(=O)c7nc(NC(=O)CCNC(=O)c8cc(NC(=O)c9nccn9C)cn8C)cn7C)cn6C)cn5C)cn4C)cn3C)cc1)c1nnc(C)n1-2 [Compound A-75] | – | A (A>90%) | – | – | > 1000 nM | A (A>90%) | > 1000 nM | –
C/C=C/Cn1cc(-c2cc(OC)c(C(=O)N3CCN(CCOCCOCCOCCOCCOCCOCCOCCOCCOCCOCCOCCOCCOCCOCCOCCNC(=O)CCNC(=O)c4nc(NC(=O)c5cc(NC(=O)CCNC(=O)c6nc(NC(=O)CCCNC(=O)c7cc(NC(=O)c8nc(NC(=O)CCNC(=O)c9cc(NC(=O)c%10nccn%10C)cn9C)cn8C)cn7C)cn6C)cn5C)cn4C)CC3)cc2OC)c2cc[nH]c2c1=O [Compound A-76] | A (A>90%) | A (A>90%) | > 1000 nM | A (A>90%) | > 1000 nM | A (A>90%) | > 1000 nM | > 1000 nM
